Data published in US8153389B2, “Methods for the identification of PI3K interacting molecules and for the purification of PI3K” (CellZone AG, priority 2006, dated 2012).

Experiments:
[1] = target: T1, PI3K delta (Homo sapiens, UniProt O00329); test: Drug pulldown with immobilized phenylthiazole ligand 1 from MOLT-4 lysate, Western blot; format: binding; details: 50 mg protein, FIG. 2B
T1 construct: immobilized phenylthiazole ligand 1 captures (pulls down) PI3K gamma and PI3K delta from the cell lysate; endogenous in cells; host or cells: MOLT-4 cells (human T cell line, ATCC CRL-1582), cell lysate
T1 sequence (O00329 whole entry): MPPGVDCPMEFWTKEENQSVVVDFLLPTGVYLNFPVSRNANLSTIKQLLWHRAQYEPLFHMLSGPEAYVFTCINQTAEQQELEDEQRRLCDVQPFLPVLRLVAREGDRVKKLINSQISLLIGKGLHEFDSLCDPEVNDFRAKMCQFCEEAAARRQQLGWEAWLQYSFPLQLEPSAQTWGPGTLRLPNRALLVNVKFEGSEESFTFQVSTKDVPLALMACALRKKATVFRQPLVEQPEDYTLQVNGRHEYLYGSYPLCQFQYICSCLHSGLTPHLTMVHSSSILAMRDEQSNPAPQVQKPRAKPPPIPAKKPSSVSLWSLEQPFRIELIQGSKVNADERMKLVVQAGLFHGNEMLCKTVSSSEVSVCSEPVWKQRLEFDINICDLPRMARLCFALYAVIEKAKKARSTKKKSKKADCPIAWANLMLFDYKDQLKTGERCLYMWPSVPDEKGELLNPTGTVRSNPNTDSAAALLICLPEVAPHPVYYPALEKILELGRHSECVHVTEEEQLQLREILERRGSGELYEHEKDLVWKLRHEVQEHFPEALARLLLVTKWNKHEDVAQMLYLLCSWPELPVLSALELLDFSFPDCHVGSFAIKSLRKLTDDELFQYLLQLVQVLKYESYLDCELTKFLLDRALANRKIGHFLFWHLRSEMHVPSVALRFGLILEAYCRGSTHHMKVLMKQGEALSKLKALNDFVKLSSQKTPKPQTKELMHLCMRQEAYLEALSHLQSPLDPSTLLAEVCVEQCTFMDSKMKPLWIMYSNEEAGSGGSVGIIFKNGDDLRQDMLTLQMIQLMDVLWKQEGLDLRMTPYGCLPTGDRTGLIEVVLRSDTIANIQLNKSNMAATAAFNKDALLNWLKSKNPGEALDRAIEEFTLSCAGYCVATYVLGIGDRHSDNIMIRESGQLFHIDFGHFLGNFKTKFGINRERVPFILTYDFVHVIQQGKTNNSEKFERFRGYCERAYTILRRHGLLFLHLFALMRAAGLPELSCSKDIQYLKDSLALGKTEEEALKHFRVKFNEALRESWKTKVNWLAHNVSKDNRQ
T1 sequence (P27986 whole entry partner): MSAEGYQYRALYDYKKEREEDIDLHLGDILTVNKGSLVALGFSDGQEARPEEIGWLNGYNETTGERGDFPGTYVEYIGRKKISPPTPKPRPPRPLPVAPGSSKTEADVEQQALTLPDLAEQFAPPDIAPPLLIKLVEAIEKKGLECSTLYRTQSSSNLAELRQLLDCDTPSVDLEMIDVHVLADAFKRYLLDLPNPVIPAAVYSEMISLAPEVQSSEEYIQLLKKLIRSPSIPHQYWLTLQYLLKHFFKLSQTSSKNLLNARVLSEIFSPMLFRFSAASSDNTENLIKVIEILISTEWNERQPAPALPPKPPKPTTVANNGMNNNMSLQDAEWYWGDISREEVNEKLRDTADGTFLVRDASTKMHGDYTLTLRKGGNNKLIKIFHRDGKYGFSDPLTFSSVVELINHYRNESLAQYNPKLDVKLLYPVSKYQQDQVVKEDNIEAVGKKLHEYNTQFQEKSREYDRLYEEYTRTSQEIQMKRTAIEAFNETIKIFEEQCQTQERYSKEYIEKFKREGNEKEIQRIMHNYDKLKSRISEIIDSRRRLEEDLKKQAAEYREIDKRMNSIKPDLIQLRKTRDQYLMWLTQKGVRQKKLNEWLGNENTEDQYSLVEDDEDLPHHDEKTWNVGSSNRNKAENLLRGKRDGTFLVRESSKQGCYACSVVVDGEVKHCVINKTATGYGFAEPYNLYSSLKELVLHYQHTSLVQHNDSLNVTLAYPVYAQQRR
Method: (§1) As biological material a cell lysate prepared from MOLT-4 cells was used. The drug pulldown experiment was performed as described in Example 2 with lysate samples containing 50 mg of protein. Captured proteins were eluted with DMSO containing buffer (lane 1), 100 μM of free phenylthiazole ligand 1 or SDS sample buffer (lane 3). The eluted samples were separated on SDS-polyacrylamide gels and transferred to membranes. The blots were first incubated with specific antibodies directed against PI3K gamma (FIG. 2A) and PI3K delta (FIG. 2B). Secondary detection antibodies labeled with fluorescent dyes for detection were used with the Odyssey infrared imaging system.
(§2) To this end a lysate of MOLT-4 cells was contacted with the affinity matrix described in example 1. […]
(§3) For Western blot analysis bound proteins were eluted from the affinity matrix and subsequently separated by SDS-Polyacrylamide gel electrophoresis. PI3K gamma and PI3K delta were detected with specific antibodies (FIG. 2).
(§4) MOLT-4 cells were homogenized in a Potter S homogenizer in lysis buffer: 50 mM Tris-HCl, 0.8% NP40, 5% glycerol, 150 mM NaCl, 1.5 mM MgCl2, 25 mM NaF, 1 mM sodium vanadate, 1 mM DTT, pH 7.5. […] The supernatant was transferred again to a fresh 50 ml falcon tube, the protein concentration was determined by a Bradford assay (BioRad) and samples containing 50 mg of protein per aliquot were prepared. […]

[2] = target: T2, PI3K gamma (Homo sapiens, UniProt P48736); test: as above; format: binding; details: 50 mg protein, FIG. 2A
T2 construct: PI3K gamma protein was captured by immobilized phenylthiazole ligand 1 from MOLT-4 cell lysate; endogenous in cells; host or cells: MOLT-4 cells (human T cell line, ATCC CRL-1582), cell lysate
T2 sequence (P48736 whole entry): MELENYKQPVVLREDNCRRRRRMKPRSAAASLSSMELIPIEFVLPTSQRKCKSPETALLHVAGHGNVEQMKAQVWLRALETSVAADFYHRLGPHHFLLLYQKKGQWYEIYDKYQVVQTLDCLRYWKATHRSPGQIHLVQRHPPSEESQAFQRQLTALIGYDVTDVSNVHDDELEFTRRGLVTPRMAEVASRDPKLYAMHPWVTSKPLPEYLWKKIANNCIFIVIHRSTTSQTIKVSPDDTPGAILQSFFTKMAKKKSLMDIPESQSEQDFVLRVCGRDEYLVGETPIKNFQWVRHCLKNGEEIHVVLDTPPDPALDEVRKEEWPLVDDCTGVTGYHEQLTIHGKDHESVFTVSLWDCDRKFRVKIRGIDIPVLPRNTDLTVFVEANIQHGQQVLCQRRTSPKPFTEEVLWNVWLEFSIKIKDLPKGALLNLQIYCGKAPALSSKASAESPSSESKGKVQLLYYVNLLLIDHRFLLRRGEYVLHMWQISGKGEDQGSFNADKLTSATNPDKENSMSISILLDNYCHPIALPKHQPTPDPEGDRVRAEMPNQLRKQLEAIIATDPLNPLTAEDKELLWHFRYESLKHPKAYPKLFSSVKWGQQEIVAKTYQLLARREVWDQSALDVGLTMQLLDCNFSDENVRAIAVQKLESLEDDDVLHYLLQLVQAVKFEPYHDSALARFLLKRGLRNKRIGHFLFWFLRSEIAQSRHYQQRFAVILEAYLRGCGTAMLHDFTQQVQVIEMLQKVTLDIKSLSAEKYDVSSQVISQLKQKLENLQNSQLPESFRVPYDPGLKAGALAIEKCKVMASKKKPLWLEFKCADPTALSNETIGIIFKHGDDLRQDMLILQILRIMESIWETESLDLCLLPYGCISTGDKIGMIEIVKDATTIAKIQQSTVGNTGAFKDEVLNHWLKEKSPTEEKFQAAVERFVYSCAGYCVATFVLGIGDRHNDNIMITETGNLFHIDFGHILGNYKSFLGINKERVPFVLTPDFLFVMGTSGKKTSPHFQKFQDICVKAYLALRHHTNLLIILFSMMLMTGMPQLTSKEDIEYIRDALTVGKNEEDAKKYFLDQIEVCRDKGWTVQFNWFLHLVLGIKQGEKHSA
Method: as §1, §2, §3, §4

- Capture (pull down) of PI3K delta from the cell lysate [1]: captures
- Capture (pull down) of PI3K gamma from the cell lysate [2]: captures
Compound: Cc1nc(NC(=O)CCOCCOCCOCCOCCN)sc1-c1ccc(Cl)c(S(C)(=O)=O)c1.Cl [phenylthiazole ligand 1, 3-(2-{2-[2-(2-amino-ethoxy)-ethoxy]-ethoxy}-ethoxy)-N-[5-(4-chloro-3-methanesulfonyl-phenyl)-4-methyl-thiazol-2yl]-propionamide hydrochloride]
